According to the NIST ThermoML archive (doi:10.1021/acs.jced.5b00346):

Assay: molar heat capacity at constant pressure
Conditions: Liquid, Large sample (1 g) DSC

CCF [fluoroethane]
molar heat capacity at constant pressure [J/K/mol]
Conditions	2160 kPa	2580 kPa	3100 kPa	3480 kPa	4030 kPa	4460 kPa	4990 kPa	5490 kPa
305.15 K	105.01	104.34	103.9	104.19	104.67	104.39	103.81	102.94
310.15 K	107.51	106.21	106.31	106.26	105.59	105.06	105.25	104.39
315.15 K	109.82	108.66	109	108.23	107.36	106.26	106.55	105.83
320.15 K	112.17	111.69	111.64	110.44	109.53	108.18	107.94	107.46
325.15 K	–	114.86	114.09	112.89	111.88	110.87	109.67	109.34
330.15 K	–	117.79	116.59	115.92	114.57	114	112.07	111.5
335.15 K	–	–	120.68	119.81	117.99	117.51	115.25	114.14
340.15 K	–	–	129.47	125.24	122.65	121.4	119.28	117.41
345.15 K	–	–	–	132.6	128.7	126.06	124.23	121.69
350.15 K	–	–	–	–	136.59	132.45	130.05	127.26
355.15 K	–	–	–	–	148.79	142.5	136.68	134.37
360.15 K	–	–	–	–	–	159.27	147.49	142.78
